Test results from ChEMBL document CHEMBL5620396, “Phenotypic screening identifies a trisubstituted imidazo[1,2-a]pyridine series that induces differentiation in multiple AML cell lines” (Eur J Med Chem, 2023).
The source made the active and inactive calls. No cut-off for these calls is given here.

Columns and labels:
[1] = AUC (0 to 8 hrs) in CD-1 mouse at 20 mg/kg, po administered as single dose and measured on day 1; type: ADME, organism-based; conditions: in vivo, time 1 day
[2] = test system: KG-1; assay: Induction of differentiation in human KG-1 cells assessed as reduction in live cell number at 123 nM incubated for 4 days by acridine orange/DAPI staining based analysis; type: functional; conditions: time 4.0 day
[3] = Dose normalized AUC (0 to 8 hrs) in CD-1 mouse at 20 mg/kg, po administered as single dose and measured on day 1; type: ADME, organism-based; conditions: in vivo, 24 h, time 1 day
[4] = Dose normalized AUC (0 to 8 hrs) in CD-1 mouse at 1 mg/kg, po administered as single dose and measured on day 1; type: ADME, organism-based; conditions: in vivo, 24 h, time 1 day
[5] = test system: OCI-AML-3; assay: Induction of differentiation in human OCI-AML-3 cells assessed as upregulation of CD11b response incubated for 4 days by flow cytometry analysis; conditions: OCI-AML-3, 96 h
[6] = Half life in CD-1 mouse at 3 mg/kg, po administered as single dose and measured over 24 hrs; type: ADME, organism-based; conditions: in vivo
[7] = test system: ME-1; assay: Induction of morphological changes in human ME-1 cells assessed as appearance of granules and vacuoles at 10 uM; type: functional, cell-based
[8] = AUC (0 to 8 hrs) in CD-1 mouse at 20 mg/kg, po administered as repeated dose on day 1 and 4; type: ADME, organism-based; conditions: in vivo, time 4 day
[9] = Cmax in CD-1 mouse at 1 mg/kg, po administered as single dose and measured on day 1; type: ADME, organism-based; conditions: in vivo, time 1 day
[10] = test system: HL-60; assay: Induction of morphological changes in human HL-60 cells assessed as variations in nuclear:cytoplasmic ratio at 10 uM; type: functional, cell-based
[11] = test system: HL-60; assay: Induction of morphological changes in human HL-60 cells assessed as variations in cell size and shape at 10 uM; type: functional, cell-based
[12] = Dose normalized AUC (0 to 8 hrs) in CD-1 mouse at 20 mg/kg, po administered as repeated dose on day 1 and 4; type: ADME, organism-based; conditions: in vivo, 96 h, time 4 day
[13] = Solubility of compound at pH 1; type: physicochemical; conditions: buffer
[14] = test system: ME-1; assay: Induction of differentiation in human ME-1 cells assessed as reduction in live cell number at 123 nM incubated for 4 days by acridine orange/DAPI staining based analysis; type: functional; conditions: time 4.0 day
[15] = test system: OCI-AML-3; assay: Induction of differentiation in human OCI-AML-3 cells assessed as reduction in live cell number at 123 nM incubated for 4 days by acridine orange/DAPI staining based analysis; type: functional; conditions: time 4.0 day
[16] = Cmax in CD-1 mouse at 20 mg/kg, po administered as single dose and measured on day 1; type: ADME, organism-based; conditions: in vivo, time 1 day
[17] = Cmax in CD-1 mouse at 1 mg/kg, po administered as repeated dose on day 1 and 4; type: ADME, organism-based; conditions: in vivo, time 4 day
[18] = Dose normalized Cmax in CD-1 mouse at 3 mg/kg, po administered as single dose and measured over 24 hrs; type: ADME, organism-based; conditions: in vivo
[19] = test system: THP-1; assay: Induction of morphological changes in human THP-1 cells assessed as variations in nuclear segmentation at 10 uM; type: functional, cell-based
[20] = test system: Kasumi 1; assay: Induction of morphological changes in human Kasumi 1 cells assessed as variations in nuclear:cytoplasmic ratio at 10 uM; type: functional, cell-based
[21] = test system: ME-1; assay: Induction of morphological changes in human ME-1 cells assessed as variations in nuclear segmentation at 10 uM; type: functional, cell-based
[22] = Plasma protein binding in mouse; type: ADME, cell-free; conditions: read-out: PPB (converted)
[23] = test system: THP-1; assay: Induction of morphological changes in human THP-1 cells assessed as variations in nuclear:cytoplasmic ratio at 10 uM; type: functional, cell-based
[24] = test system: HL-60; assay: Induction of differentiation in human HL-60 cells assessed as reduction in live cell number at 123 nM incubated for 4 days by acridine orange/DAPI staining based analysis; type: functional; conditions: time 4.0 day
[25] = test system: HL-60; assay: Induction of morphological changes in human HL-60 cells assessed as appearance of granules and vacuoles at 10 uM; type: functional, cell-based
[26] = Toxicity in CD-1 mouse assessed as adverse effects at 3 mg/kg, po administered twice daily for 7 days; type: organism-based; conditions: in vivo, 168 h, time 7 day
[27] = Cmax in CD-1 mouse at 3 mg/kg, po administered as single dose and measured over 24 hrs; type: ADME, organism-based; conditions: in vivo
[28] = Cmax in CD-1 mouse at 20 mg/kg, po administered as repeated dose on day 1 and 4; type: ADME, organism-based; conditions: in vivo, time 4 day
[29] = AUC (0 to 8 hrs) in CD-1 mouse at 1 mg/kg, po administered as single dose and measured on day 1; type: ADME, organism-based; conditions: in vivo, time 1 day
[30] = test system: ME-1; assay: Induction of morphological changes in human ME-1 cells assessed as variations in nuclear:cytoplasmic ratio at 10 uM; type: functional, cell-based
[31] = Dose normalized Cmax in CD-1 mouse at 20 mg/kg, po administered as single dose and measured on day 1; type: ADME, organism-based; conditions: in vivo, 24 h, time 1 day
[32] = Dose normalized Cmax in CD-1 mouse at 1 mg/kg, po administered as repeated dose on day 1 and 4; type: ADME, organism-based; conditions: in vivo, 96 h, time 4 day
[33] = test system: THP-1; assay: Induction of morphological changes in human THP-1 cells assessed as variations in cell size and shape at 10 uM; type: functional, cell-based
[34] = AUC (0 to 8 hrs) in CD-1 mouse at 3 mg/kg, po administered as single dose and measured over 24 hrs; type: ADME, organism-based; conditions: in vivo
[35] = test system: HL-60; assay: Induction of morphological changes in human HL-60 cells assessed as variations in nuclear segmentation at 10 uM; type: functional, cell-based
[36] = Apparent clearance in CD-1 mouse at 3 mg/kg, po administered as single dose and measured over 24 hrs; type: ADME, organism-based; conditions: in vivo
[37] = test system: OCI-AML-3; assay: Induction of morphological changes in human OCI-AML-3 cells assessed as variations in cell size and shape at 10 uM; type: functional, cell-based
[38] = Oral bioavailability in CD-1 mouse at 3 mg/kg administered as single dose and measured over 24 hrs; type: ADME, organism-based; conditions: in vivo
[39] = test system: OCI-AML-3; assay: Induction of morphological changes in human OCI-AML-3 cells assessed as appearance of granules and vacuoles at 10 uM; type: functional, cell-based
[40] = Apparent permeability across apical to basolateral side in human Caco-2 cells; type: ADME, cell-based
[41] = Dose normalized AUC (0 to 8 hrs) in CD-1 mouse at 1 mg/kg, po administered as repeated dose on day 1 and 4; type: ADME, organism-based; conditions: in vivo, 96 h, time 4 day
[42] = test system: Kasumi 1; assay: Induction of morphological changes in human Kasumi 1 cells assessed as variations in cell size and shape at 10 uM; type: functional, cell-based
[43] = test system: THP-1; assay: Induction of differentiation in human THP-1 cells assessed as reduction in live cell number at 123 nM incubated for 4 days by acridine orange/DAPI staining based analysis; type: functional; conditions: time 4.0 day
[44] = test system: OCI-AML-3; assay: Induction of morphological changes in human OCI-AML-3 cells assessed as variations in nuclear segmentation at 10 uM; type: functional, cell-based
[45] = Half life in CD-1 mouse at 20 mg/kg, po administered as repeated dose on day 1 and 4; type: ADME, organism-based; conditions: in vivo, time 4 day
[46] = test system: Kasumi 1; assay: Induction of morphological changes in human Kasumi 1 cells assessed as variations in nuclear segmentation at 10 uM; type: functional, cell-based
[47] = test system: ME-1; assay: Induction of morphological changes in human ME-1 cells assessed as variations in cell size and shape at 10 uM; type: functional, cell-based
[48] = test system: Kasumi 1; assay: Induction of morphological changes in human Kasumi 1 cells assessed as appearance of granules and vacuoles at 10 uM; type: functional, cell-based

Cc1cc(F)ccc1-c1cc(NS(C)(=O)=O)c2ncc(-c3ccc4c(cnn4C)c3)n2c1
AUC(0-t) at 24 h [1]: 4460 ng·h/mL
Activity [2]: Active
AUC/dose [3]: 223 ng·h/mL
AUC/dose [4]: 845 ng·h/mL
EC50 [5]: 25 nM
half-life [6]: 2.2 h
Activity [7]: Active
AUC(0-t) at 96 h [8]: 4370 ng·h/mL
Cmax [9]: 187 ng/mL
Activity [10]: Active
Activity [11]: Active
AUC/dose [12]: 218 ng·h/mL
solubility [13]: > 100 µM
Activity [14]: Active
Activity [15]: Active
Cmax [16]: 677 ng/mL
Cmax [17]: 204 ng/mL
Cmax/dose [18]: 120 ng/mL
Activity [19]: Active
Activity [20]: Active
Activity [21]: Active
fraction unbound [22]: 0.005
Activity [23]: Active
Activity [24]: Active
Activity [25]: Active
Activity [26]: Non-Toxic
Cmax [27]: 360 ng/mL
Cmax [28]: 784 ng/mL
AUC(0-t) at 24 h [29]: 845 ng·h/mL
Activity [30]: Active
Cmax/dose [31]: 34 ng/mL
Cmax/dose [32]: 204 ng/mL
Activity [33]: Active
AUC(0-t) at 24 h [34]: 3060 ng·h/mL
Activity [35]: Active
CL/F [36]: 16 mL/min/kg
Activity [37]: Active
bioavailability [38]: 100%
Activity [39]: Active
Papp A→B [40]: 16 ×10⁻⁶ cm/s
AUC/dose [41]: 731 ng·h/mL
Activity [42]: Active
Activity [43]: Active
Activity [44]: Active
half-life [45]: 4.1 h
Activity [46]: Active
Activity [47]: Active
Activity [48]: Active
